The target in this test is T1, PrTNA (Proteiniclasticum ruminis, UniProt A0A1I5A1Q1).
T1 construct: gene tnaA; full length, untagged, codon-optimised gene in pGold, expressed in C. glutamicum C1*
T1 sequence (A0A1I5A1Q1 1-461): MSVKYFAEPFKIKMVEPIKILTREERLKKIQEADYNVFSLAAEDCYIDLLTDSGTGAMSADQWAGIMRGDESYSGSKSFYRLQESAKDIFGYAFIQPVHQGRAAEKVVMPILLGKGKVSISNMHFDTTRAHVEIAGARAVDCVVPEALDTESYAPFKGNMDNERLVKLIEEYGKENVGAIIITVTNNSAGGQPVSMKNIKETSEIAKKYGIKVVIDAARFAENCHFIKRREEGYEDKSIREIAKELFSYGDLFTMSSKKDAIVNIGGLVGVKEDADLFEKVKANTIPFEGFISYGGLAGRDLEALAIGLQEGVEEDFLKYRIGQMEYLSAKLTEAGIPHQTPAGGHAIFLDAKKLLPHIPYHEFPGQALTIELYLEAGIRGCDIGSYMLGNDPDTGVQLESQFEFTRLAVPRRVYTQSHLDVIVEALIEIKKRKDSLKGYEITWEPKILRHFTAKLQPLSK
Kind of test: whole-cell conversion to indole, HPLC. Type of test: cell-based. The note with it: C. glutamicum C1* co-expressing aroP, CGXII medium, 1 g L^−1 Trp; empty vector control without aroP.

Turning to `N[C@@H](Cc1c[nH]c2ccccc12)C(=O)O` [L-tryptophan], the “whole-cell conversion to indole, HPLC” value is listed as “Indole production was observed for all six tested TNAs”.

For the origin of these results see PMC8944080, “Production of indole by Corynebacterium glutamicum microbial cell factories for flavor and fragrance applications” (Microbial Cell Factories, 2022).
